Numbers after ± are expanded uncertainties.
Legend:
[1] = refractive index (Na D-line) (dimensionless); xn = mol fraction of the nth substance listed; settings: 101 kPa, Liquid, Standard Abbe refractometry, x1 = 1
[2] = xn = mol fraction of the nth substance listed; settings: 101 kPa, Liquid, Vibrating tube method, x1 = 1
[3] = refractive index (Na D-line) (dimensionless); settings: 101.33 kPa, Liquid, Standard Abbe refractometry
[4] = 101 kPa, Liquid, Vibrating tube method

CCCO [propan-1-ol] + C1CCC(NC2CCCCC2)CC1
Settings | mass density, [2] [kg/m3] | refractive index, [1]
288.15 K | 807.69 ± 0.15 | 1.38785 ± 0.00036
293.15 K | 803.703 ± 0.15 | 1.38578 ± 0.00036
298.15 K | 799.692 ± 0.15 | 1.38364 ± 0.00036
303.15 K | 795.65 ± 0.15 | 1.38153 ± 0.00036
308.15 K | 791.576 ± 0.15 | 1.37929 ± 0.00036
313.15 K | 787.466 ± 0.15 | 1.37702 ± 0.00036
318.15 K | 783.309 ± 0.15 | 1.37483 ± 0.00036
323.15 K | 779.095 ± 0.16 | 1.37252 ± 0.00036

CC(C)(C)O [2-methylpropan-2-ol]
Settings | mass density, 303.15 K [kg/m3] | mass density, 308.15 K [kg/m3] | mass density, 313.15 K [kg/m3] | mass density, 318.15 K [kg/m3] | mass density, 323.15 K [kg/m3] | refractive index, 303.15 K | refractive index, 308.15 K | refractive index, 313.15 K | refractive index, 318.15 K | refractive index, 323.15 K
[3] | – | – | – | – | – | 1.38222 ± 0.00035 | 1.37947 ± 0.00035 | 1.37667 ± 0.00035 | 1.37384 ± 0.00035 | 1.37097 ± 0.00035
[4] | 775.412 ± 0.14 | 770.193 ± 0.15 | 764.884 ± 0.15 | 759.488 ± 0.15 | 754.015 ± 0.15 | – | – | – | – | –

CCCCCO [pentan-1-ol] + C1CCC(NC2CCCCC2)CC1
Settings | mass density, [2] [kg/m3] | refractive index, [1]
288.15 K | 818.282 ± 0.24 | 1.41192 ± 0.0004
293.15 K | 814.635 ± 0.24 | 1.40994 ± 0.0004
298.15 K | 810.968 ± 0.24 | 1.40796 ± 0.0004
303.15 K | 807.278 ± 0.24 | 1.40595 ± 0.0004
308.15 K | 803.558 ± 0.24 | 1.40388 ± 0.0004
313.15 K | 799.817 ± 0.24 | 1.40189 ± 0.0004
318.15 K | 796.001 ± 0.24 | 1.39987 ± 0.0004
323.15 K | 792.166 ± 0.24 | 1.39776 ± 0.0004

CCCCCO [pentan-1-ol]
Settings | mass density, [4] [kg/m3] | refractive index, [3]
288.15 K | 818.282 ± 0.24 | 1.41192 ± 0.0004
293.15 K | 814.635 ± 0.24 | 1.40994 ± 0.0004
298.15 K | 810.968 ± 0.24 | 1.40796 ± 0.0004
303.15 K | 807.278 ± 0.24 | 1.40595 ± 0.0004
308.15 K | 803.558 ± 0.24 | 1.40388 ± 0.0004
313.15 K | 799.817 ± 0.24 | 1.40189 ± 0.0004
318.15 K | 796.001 ± 0.24 | 1.39987 ± 0.0004
323.15 K | 792.166 ± 0.24 | 1.39776 ± 0.0004

CCCO [propan-1-ol]
Settings | mass density, [4] [kg/m3] | refractive index, [3]
288.15 K | 807.69 ± 0.15 | 1.38785 ± 0.00036
293.15 K | 803.703 ± 0.15 | 1.38578 ± 0.00036
298.15 K | 799.692 ± 0.15 | 1.38364 ± 0.00036
303.15 K | 795.65 ± 0.15 | 1.38153 ± 0.00036
308.15 K | 791.576 ± 0.15 | 1.37929 ± 0.00036
313.15 K | 787.466 ± 0.15 | 1.37702 ± 0.00036
318.15 K | 783.309 ± 0.15 | 1.37483 ± 0.00036
323.15 K | 779.095 ± 0.16 | 1.37252 ± 0.00036

CCCCO [butan-1-ol]
Settings | mass density, [4] [kg/m3] | refractive index, [3]
288.15 K | 813.373 ± 0.14 | 1.40135 ± 0.00036
293.15 K | 809.573 ± 0.14 | 1.39932 ± 0.00036
298.15 K | 805.762 ± 0.15 | 1.3973 ± 0.00036
303.15 K | 801.923 ± 0.15 | 1.39523 ± 0.00036
308.15 K | 798.053 ± 0.15 | 1.39318 ± 0.00036
313.15 K | 794.147 ± 0.15 | 1.3911 ± 0.00036
318.15 K | 790.231 ± 0.15 | 1.38901 ± 0.00036
323.15 K | 786.238 ± 0.15 | 1.38688 ± 0.00036

CC(C)(C)O [2-methylpropan-2-ol] + C1CCC(NC2CCCCC2)CC1
Settings | mass density, 303.15 K [kg/m3] | mass density, 308.15 K [kg/m3] | mass density, 313.15 K [kg/m3] | mass density, 318.15 K [kg/m3] | mass density, 323.15 K [kg/m3] | refractive index, 303.15 K | refractive index, 308.15 K | refractive index, 313.15 K | refractive index, 318.15 K | refractive index, 323.15 K
[1] | – | – | – | – | – | 1.38222 ± 0.00035 | 1.37947 ± 0.00035 | 1.37667 ± 0.00035 | 1.37384 ± 0.00035 | 1.37097 ± 0.00035
[2] | 775.412 ± 0.14 | 770.193 ± 0.15 | 764.884 ± 0.15 | 759.488 ± 0.15 | 754.015 ± 0.15 | – | – | – | – | –

CCC(C)O (centres undefined) [butan-2-ol] + C1CCC(NC2CCCCC2)CC1
Settings | mass density, [2] [kg/m3] | refractive index, [1]
288.15 K | 810.689 ± 0.24 | 1.39951 ± 0.0004
293.15 K | 806.646 ± 0.24 | 1.39736 ± 0.0004
298.15 K | 802.528 ± 0.24 | 1.39515 ± 0.0004
303.15 K | 798.326 ± 0.24 | 1.39293 ± 0.0004
308.15 K | 794.03 ± 0.24 | 1.39064 ± 0.0004
313.15 K | 789.632 ± 0.24 | 1.38832 ± 0.0004
318.15 K | 785.117 ± 0.24 | 1.38596 ± 0.0004
323.15 K | 780.515 ± 0.24 | 1.38352 ± 0.0004

CCC(C)O (centres undefined) [butan-2-ol]
Settings | mass density, [4] [kg/m3] | refractive index, [3]
288.15 K | 810.689 ± 0.24 | 1.39951 ± 0.0004
293.15 K | 806.646 ± 0.24 | 1.39736 ± 0.0004
298.15 K | 802.528 ± 0.24 | 1.39515 ± 0.0004
303.15 K | 798.326 ± 0.24 | 1.39293 ± 0.0004
308.15 K | 794.03 ± 0.24 | 1.39064 ± 0.0004
313.15 K | 789.632 ± 0.24 | 1.38832 ± 0.0004
318.15 K | 785.117 ± 0.24 | 1.38596 ± 0.0004
323.15 K | 780.515 ± 0.24 | 1.38352 ± 0.0004

C1CCC(NC2CCCCC2)CC1 [N-cyclohexylcyclohexanamine]
Settings | mass density, [4] [kg/m3] | refractive index, [3]
288.15 K | 915.498 ± 0.23 | 1.48636 ± 0.0004
293.15 K | 911.705 ± 0.23 | 1.48416 ± 0.0004
298.15 K | 907.923 ± 0.23 | 1.48198 ± 0.0004
303.15 K | 904.144 ± 0.23 | 1.47978 ± 0.0004
308.15 K | 900.372 ± 0.23 | 1.47761 ± 0.0004
313.15 K | 896.608 ± 0.23 | 1.47562 ± 0.0004
318.15 K | 892.847 ± 0.23 | 1.47347 ± 0.0004
323.15 K | 889.089 ± 0.23 | 1.47134 ± 0.0004

CCCCO [butan-1-ol] + C1CCC(NC2CCCCC2)CC1
Settings | mass density, [2] [kg/m3] | refractive index, [1]
288.15 K | 813.373 ± 0.14 | 1.40135 ± 0.00036
293.15 K | 809.573 ± 0.14 | 1.39932 ± 0.00036
298.15 K | 805.762 ± 0.15 | 1.3973 ± 0.00036
303.15 K | 801.923 ± 0.15 | 1.39523 ± 0.00036
308.15 K | 798.053 ± 0.15 | 1.39318 ± 0.00036
313.15 K | 794.147 ± 0.15 | 1.3911 ± 0.00036
318.15 K | 790.231 ± 0.15 | 1.38901 ± 0.00036
323.15 K | 786.238 ± 0.15 | 1.38688 ± 0.00036

Source: the NIST ThermoML archive (doi:10.1016/j.tca.2011.08.002)
